In PubChem BioAssay AID248 (DTP/NCI, 2004):
“And” between values parts separate entries of the source, which are not always exact repeats. Equal entries are not always repeated. Inconclusive results and toxic doses are left out.

Test system: L1210 leukemia ip in BDF1 mice, survival T/C
Assay: NCI In Vivo Anticancer Drug Screen. Data for tumor model L1210 Leukemia (intraperitoneal) in B6D2F1 (BDF1) mice
Details: higher = longer survival
In short: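 Tumor was transplanted into mice, which were then dosed with test compound or vehicle alone. Survival was recorded for each group, and the treated figure was expressed relative to the control figure.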

[1] = endpoint: mean survival time, dose: 100.0 mg/kg/injection, schedule: Q01DX009 (ip), vehicle: saline with Tween-80
[2] = endpoint: mean survival time, dose: 100.0 mg/kg/injection, schedule: Q04DX003 (ip), vehicle: saline with Tween-80
[3] = endpoint: mean survival time, dose: 200.0 mg/kg/injection, schedule: Q01DX009 (ip), vehicle: saline with Tween-80
[4] = endpoint: mean survival time, dose: 200.0 mg/kg/injection, schedule: Q04DX003 (ip), vehicle: saline with Tween-80
[5] = endpoint: mean survival time, dose: 400.0 mg/kg/injection, schedule: Q01DX009 (ip), vehicle: saline with Tween-80
[6] = endpoint: mean survival time, dose: 400.0 mg/kg/injection, schedule: Q04DX003 (ip), vehicle: saline with Tween-80
[7] = endpoint: mean survival time, dose: 100.0 mg/kg/injection, schedule: Q04DX003 (ip), vehicle: saline
[8] = endpoint: mean survival time, dose: 100.0 mg/kg/injection, schedule: Q01DX001 (ip), vehicle: saline
[9] = endpoint: mean survival time, dose: 200.0 mg/kg/injection, schedule: Q01DX001 (ip), vehicle: saline
[10] = endpoint: mean survival time, dose: 100.0 mg/kg/injection, schedule: Q01DX001 (ip), vehicle: saline with Tween-80
[11] = endpoint: mean survival time, dose: 75.0 mg/kg/injection, schedule: Q01DX001 (ip), vehicle: saline

O=C(NO)Nc1ccccc1
T/C (endpoint: mean survival time, dose: 50.0 mg/kg/injection, schedule: Q01DX Z (ip), vehicle: carboxymethylcellulose (CMC)): 94 % of control | T/C [1]: 98 % of control | T/C (endpoint: mean survival time, dose: 100.0 mg/kg/injection, schedule: Q01DX Z (ip), vehicle: carboxymethylcellulose (CMC)): 95 % of control | T/C [2]: 95 % of control | T/C (endpoint: mean survival time, dose: 150.0 mg/kg/injection, schedule: Q01DX Z (ip), vehicle: methylcellulose (MC)): 112 % of control | T/C [3]: 109 % of control | T/C [4]: 96 % of control | T/C (endpoint: mean survival time, dose: 230.0 mg/kg/injection, schedule: Q01DX Z (ip), vehicle: methylcellulose (MC)): 97 % of control | T/C [5]: 98 % of control | T/C [6]: 106 % of control

O=C(NC(CBr)CCCBr)c1ccc([N+](=O)[O-])cc1 (stereo not given)
T/C [2]: 105 % of control | T/C [4]: 94 % of control | T/C [6]: 94 % of control

CC(/C=N/N(C)C)=N\N(C)C
T/C [7]: 92 % of control | T/C (endpoint: mean survival time, dose: 200.0 mg/kg/injection, schedule: Q04DX003 (ip), vehicle: saline): 102 % of control

NC1c2ccccc2CC1C(=O)O (stereo not given)
T/C [8]: 95 % of control | T/C [9]: 97 % of control

O=C1CC(Nc2ccc(F)cc2)C(=O)N1c1ccc(F)cc1 (stereo not given)
T/C (endpoint: mean survival time, dose: 75.0 mg/kg/injection, schedule: Q04DX003 (ip), vehicle: other): 90 % of control | T/C (endpoint: mean survival time, dose: 150.0 mg/kg/injection, schedule: Q04DX003 (ip), vehicle: other): 92 % of control | T/C (endpoint: mean survival time, dose: 300.0 mg/kg/injection, schedule: Q04DX003 (ip), vehicle: other): 90 % of control

CC(=O)c1ccc(OC(=O)Nc2ccccc2F)cc1
T/C (endpoint: mean survival time, dose: 25.0 mg/kg/injection, schedule: Q01DX009 (ip), vehicle: saline with Tween-80): 112 % of control | T/C (endpoint: mean survival time, dose: 50.0 mg/kg/injection, schedule: Q01DX009 (ip), vehicle: saline with Tween-80): 111 % of control | T/C [1]: 96 % of control and 110 % of control

Cc1nc(N)[nH]c(=O)c1CCCNc1ccc(F)cc1
T/C (endpoint: mean survival time, dose: 25.0 mg/kg/injection, schedule: Q01DX001 (ip), vehicle: saline with Tween-80): 95 % of control | T/C (endpoint: mean survival time, dose: 50.0 mg/kg/injection, schedule: Q01DX001 (ip), vehicle: saline with Tween-80): 93 % of control | T/C [10]: 92 % of control

c1ccc2c(SCCC3CCCCC3)nnnc2c1
T/C (endpoint: mean survival time, dose: 100.0 mg/kg/injection, schedule: Q04DX003 (ip), vehicle: acetone): 89 % of control | T/C (endpoint: mean survival time, dose: 200.0 mg/kg/injection, schedule: Q04DX003 (ip), vehicle: acetone): 98 % of control | T/C (endpoint: mean survival time, dose: 400.0 mg/kg/injection, schedule: Q04DX003 (ip), vehicle: acetone): 93 % of control

CN1CCN(CCSC(=O)N2c3ccccc3Sc3ccc(Cl)cc32)CC1
T/C [11]: 94 % of control

Nc1c(Cl)cc2c(c1Cl)Cc1c-2cc(Br)c(N)c1Br
T/C (endpoint: median survival time, dose: 5.0 mg/kg/injection, schedule: Q04DX003 (ip), vehicle: saline): 121 % of control | T/C (endpoint: median survival time, dose: 10.0 mg/kg/injection, schedule: Q04DX003 (ip), vehicle: saline): 153 % of control | T/C (endpoint: median survival time, dose: 20.0 mg/kg/injection, schedule: Q04DX003 (ip), vehicle: saline): 180 % of control | T/C (endpoint: median survival time, dose: 40.0 mg/kg/injection, schedule: Q04DX003 (ip), vehicle: saline): 223 % of control | T/C (endpoint: median survival time, dose: 50.0 mg/kg/injection, schedule: Q07DX003 (ip), vehicle: saline): 211 % of control | T/C (endpoint: median survival time, dose: 80.0 mg/kg/injection, schedule: Q04DX003 (ip), vehicle: saline): 223 % of control | T/C (endpoint: median survival time, dose: 100.0 mg/kg/injection, schedule: Q07DX003 (ip), vehicle: saline): 202 % of control | T/C (endpoint: median survival time, dose: 200.0 mg/kg/injection, schedule: Q07DX003 (ip), vehicle: saline): 54 % of control | T/C (endpoint: median survival time, dose: 400.0 mg/kg/injection, schedule: Q07DX003 (ip), vehicle: saline): 53 % of control

O=C(CNC(=O)OCc1ccccc1)NCCCCCCCCCCNC(=O)CNC(=O)OCc1ccccc1
T/C (endpoint: mean survival time, dose: 10.0 mg/kg/injection, schedule: Q01DX Z (ip), vehicle: saline): 104 % of control | T/C (endpoint: mean survival time, dose: 30.0 mg/kg/injection, schedule: Q01DX Z (ip), vehicle: saline): 90 % of control | T/C (endpoint: mean survival time, dose: 100.0 mg/kg/injection, schedule: Q01DX Z (ip), vehicle: saline): 90 % of control | T/C (endpoint: mean survival time, dose: 300.0 mg/kg/injection, schedule: Q01DX Z (ip), vehicle: saline): 95 % of control

CCCCCCCCCCCCNC(=O)CC(O)(CC(=O)O)C(=O)O (stereo not given)
T/C (endpoint: mean survival time, dose: 100.0 mg/kg/injection, schedule: Q04DX003 (ip), vehicle: Klucel (hydroxypropylcellulose) (HPC)): 96 % of control

O=C(CN1CC1)NCCCCCCCCNC(=O)CN1CC1
T/C (endpoint: mean survival time, dose: 4.4 mg/kg/injection, schedule: Q01DX001 (ip), vehicle: carboxymethylcellulose (CMC)): 108 % of control | T/C (endpoint: mean survival time, dose: 6.6 mg/kg/injection, schedule: Q01DX001 (ip), vehicle: carboxymethylcellulose (CMC)): 115 % of control | T/C (endpoint: mean survival time, dose: 7.0 mg/kg/injection, schedule: Q01DX009 (ip), vehicle: carboxymethylcellulose (CMC)): 97 % of control | T/C (endpoint: mean survival time, dose: 10.0 mg/kg/injection, schedule: Q01DX001 (ip), vehicle: carboxymethylcellulose (CMC)): 117 % of control | T/C (endpoint: mean survival time, dose: 11.0 mg/kg/injection, schedule: Q01DX009 (ip), vehicle: carboxymethylcellulose (CMC)): 112 % of control | T/C (endpoint: mean survival time, dose: 15.0 mg/kg/injection, schedule: Q01DX001 (ip), vehicle: carboxymethylcellulose (CMC)): 117 % of control | T/C (endpoint: mean survival time, dose: 25.0 mg/kg/injection, schedule: Q01DX009 (ip), vehicle: carboxymethylcellulose (CMC)): 118 % of control | T/C (endpoint: mean survival time, dose: 33.0 mg/kg/injection, schedule: Q01DX009 (ip), vehicle: carboxymethylcellulose (CMC)): 183 % of control | T/C (endpoint: mean survival time, dose: 40.0 mg/kg/injection, schedule: Q04DX003 (ip), vehicle: Klucel (hydroxypropylcellulose) (HPC)): 154 % of control | T/C (endpoint: mean survival time, dose: 50.0 mg/kg/injection, schedule: Q01DX001 (ip), vehicle: carboxymethylcellulose (CMC)): 152 % of control | T/C (endpoint: mean survival time, dose: 50.0 mg/kg/injection, schedule: Q01DX009 (ip), vehicle: carboxymethylcellulose (CMC)): 104 % of control | T/C (endpoint: mean survival time, dose: 60.0 mg/kg/injection, schedule: Q04DX003 (ip), vehicle: Klucel (hydroxypropylcellulose) (HPC)): 173 % of control | T/C (endpoint: mean survival time, dose: 90.0 mg/kg/injection, schedule: Q04DX003 (ip), vehicle: Klucel (hydroxypropylcellulose) (HPC)): 97 % of control

Cc1ncc(C(O)(c2ccccc2)C(C)C)n1Cc1ccccc1 (stereo not given)
T/C [10]: 94 % of control | T/C [1]: 95 % of control and 96 % of control | T/C (endpoint: mean survival time, dose: 100.0 mg/kg/injection, schedule: Q04DX002 (ip), vehicle: saline with Tween-80): 95 % of control and 97 % of control | T/C [2]: 101 % of control | T/C (endpoint: mean survival time, dose: 200.0 mg/kg/injection, schedule: Q01DX001 (ip), vehicle: saline with Tween-80): 92 % of control | T/C [3]: 95 % of control and 108 % of control | T/C (endpoint: mean survival time, dose: 200.0 mg/kg/injection, schedule: Q04DX002 (ip), vehicle: saline with Tween-80): 93 % of control and 113 % of control | T/C [4]: 97 % of control | T/C (endpoint: mean survival time, dose: 400.0 mg/kg/injection, schedule: Q01DX001 (ip), vehicle: saline with Tween-80): 94 % of control | T/C [5]: 102 % of control | T/C (endpoint: mean survival time, dose: 400.0 mg/kg/injection, schedule: Q04DX002 (ip), vehicle: saline with Tween-80): 98 % of control and 103 % of control | T/C [6]: 101 % of control

CCCC(C)c1ccccc1O (stereo not given)
T/C [2]: 95 % of control

CCCCC(=O)N/N=C/c1ccc(Cl)c([N+](=O)[O-])c1
T/C [8]: 91 % of control | T/C [9]: 89 % of control | T/C (endpoint: mean survival time, dose: 400.0 mg/kg/injection, schedule: Q01DX001 (ip), vehicle: saline): 91 % of control

O=C(Cc1ccc(CC(=O)NO)cc1)NO
T/C [11]: 100 % of control | T/C (endpoint: mean survival time, dose: 150.0 mg/kg/injection, schedule: Q01DX001 (ip), vehicle: saline): 96 % of control

CN(C)CCCN1CCC2(CC[C@H]3CCCC[C@@H]3C2)CC1
T/C (endpoint: mean survival time, dose: 9.0 mg/kg/injection, schedule: Q01DX015 (ip), vehicle: saline): 91 % of control | T/C (endpoint: mean survival time, dose: 18.0 mg/kg/injection, schedule: Q01DX015 (ip), vehicle: saline): 97 % of control | T/C (endpoint: mean survival time, dose: 25.0 mg/kg/injection, schedule: Q01DX009 (ip), vehicle: saline): 101 % of control | T/C (endpoint: mean survival time, dose: 25.0 mg/kg/injection, schedule: Q04DX003 (ip), vehicle: saline): 90 % of control | T/C (endpoint: mean survival time, dose: 36.0 mg/kg/injection, schedule: Q01DX015 (ip), vehicle: saline): 101 % of control | T/C (endpoint: mean survival time, dose: 50.0 mg/kg/injection, schedule: Q01DX009 (ip), vehicle: saline): 101 % of control | T/C (endpoint: mean survival time, dose: 50.0 mg/kg/injection, schedule: Q04DX003 (ip), vehicle: saline): 93 % of control | T/C (endpoint: mean survival time, dose: 72.0 mg/kg/injection, schedule: Q01DX015 (ip), vehicle: saline): 114 % of control | T/C (endpoint: mean survival time, dose: 100.0 mg/kg/injection, schedule: Q01DX009 (ip), vehicle: saline): 109 % of control | T/C [7]: 104 % of control
